The results in this text go back to ChEMBL document CHEMBL5620417, “N-aryltetrahydroisoquinoline derivatives as HA-CD44 interaction inhibitors: Design, synthesis, computational studies, and antitumor effect” (Eur J Med Chem, 2023).

Molecules are shown by their SMILES. The source made the active and inactive calls. No cut-off for these calls is given here.

The test system of assay [1] is MDA-MB-231. In words: Antiproliferative activity against human MDA-MB-231 cells assessed as reduction in cell viability at >=100 uM incubated for 5 days by PrestoBlue reagent based glo-max fluorescence assay. The class given is functional. The conditions noted are these: time 5.0 day.
The test system of assay [2] is A549. Nature of the assay: Antiproliferative activity against human A549 cells assessed as reduction in cell viability at >=100 uM incubated for 5 days by PrestoBlue reagent based glo-max fluorescence assay. The class given is functional. To be noted: time 5.0 day.
The subject of assay [3] is MDA-MB-231. Nature of the assay: Antiproliferative activity against human MDA-MB-231 cells assessed as reduction in cell viability incubated for 5 days by PrestoBlue reagent based glo-max fluorescence assay. In kind it is functional. The conditions noted are these: MDA-MB-231, 120 h.
For assay [4], the system named is A549. Nature of the assay: Antiproliferative activity against human A549 cells assessed as reduction in cell viability incubated for 5 days by PrestoBlue reagent based glo-max fluorescence assay. The class given is functional. To be noted: A549, 120 h.
For assay [5], the system named is MDA-MB-231. Nature of the assay: Antiproliferative activity against human MDA-MB-231 cells assessed as reduction in cell viability at <=70 uM incubated for 5 days by PrestoBlue reagent based glo-max fluorescence assay. The class given is functional. To be noted: time 5.0 day.
The test system of assay [6] is MDA-MB-231. Nature of the assay: Antiproliferative activity against human MDA-MB-231 cells assessed as increase in dead cell in spheroid at 1 uM incubated for 5 days by PrestoBlue reagent based microscopic analysis. To be noted: time 5.0 day. In kind it is functional.
Assay [7] deals with MDA-MB-231. Nature of the assay: Antiproliferative activity against human MDA-MB-231 cells assessed as reduction in cell viability incubated for 5 days pre-incubated with anti-CD44 antibody IM7 by PrestoBlue reagent based glo-max fluorescence assay relative to control. The class given is functional. The conditions noted are these: time 5 day.
Assay [8] concerns MDA-MB-231. Nature of the assay: Antiproliferative activity against human MDA-MB-231 cells assessed as decrease in viable cells incubated for 5 days by PrestoBlue reagent based glo-max fluorescence assay. In kind it is functional, cell-based. To be noted: time 5.0 day.
Assay [9] deals with MDA-MB-231. Nature of the assay: Antiproliferative activity against human MDA-MB-231 cells assessed as spheroid disaggregation at 100 uM incubated for 5 days by PrestoBlue reagent based microscopic analysis. In kind it is functional, cell-based. The conditions noted are these: time 5.0 day.
For assay [10], the system named is MDA-MB-231. Nature of the assay: Antiproliferative activity against human MDA-MB-231 cells assessed as change in spheroid integrity at 1 uM incubated for 5 days by PrestoBlue reagent based microscopic analysis. The conditions noted are these: time 5.0 day. The class given is functional, cell-based.
Assay [11] has as its system MDA-MB-231. In words: Antiproliferative activity against human MDA-MB-231 cells assessed as fold change in cell viability incubated for 5 days by PrestoBlue reagent based glo-max fluorescence assay. The class given is functional. The conditions noted are these: time 5 day.
Assay [12] has as its target CD44 antigen (Homo sapiens) (UniProt P16070). Nature of the assay: Displacement of HA-FITC from CD44 in human MDA-MB-231 cells assessed as decrease in fluorescent intensity at 120 ug/ml incubated for 45 mins by competitive binding assay based flow cytometric analysis. The class given is cell-based. To be noted: dose 120.0 µg/ml. (Flow cytometry measures light scatter and fluorescence of single cells or particles in a stream.)

The EC50 is the concentration that produces a half-maximal response.

Chain of CD44 antigen (Homo sapiens) (P16070 whole entry): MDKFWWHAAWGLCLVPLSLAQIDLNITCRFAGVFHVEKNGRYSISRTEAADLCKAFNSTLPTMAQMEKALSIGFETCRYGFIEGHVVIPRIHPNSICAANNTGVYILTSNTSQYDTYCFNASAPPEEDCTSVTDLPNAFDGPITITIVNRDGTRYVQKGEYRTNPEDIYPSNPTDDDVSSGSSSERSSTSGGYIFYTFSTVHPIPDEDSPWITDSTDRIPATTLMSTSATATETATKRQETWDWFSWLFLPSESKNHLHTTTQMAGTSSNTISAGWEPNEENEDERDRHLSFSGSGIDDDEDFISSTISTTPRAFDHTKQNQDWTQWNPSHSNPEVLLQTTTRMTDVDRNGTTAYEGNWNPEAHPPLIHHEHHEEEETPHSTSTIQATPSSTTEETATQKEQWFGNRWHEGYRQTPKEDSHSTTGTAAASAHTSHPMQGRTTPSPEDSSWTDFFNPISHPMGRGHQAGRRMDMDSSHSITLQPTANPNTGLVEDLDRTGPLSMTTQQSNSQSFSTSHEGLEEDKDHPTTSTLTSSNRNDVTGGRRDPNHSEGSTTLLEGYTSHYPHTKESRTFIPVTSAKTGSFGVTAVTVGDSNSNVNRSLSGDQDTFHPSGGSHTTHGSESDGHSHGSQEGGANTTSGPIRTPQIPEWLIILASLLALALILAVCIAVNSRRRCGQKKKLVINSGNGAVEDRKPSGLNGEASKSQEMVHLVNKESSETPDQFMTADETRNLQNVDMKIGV

Consider `COc1cc2c(cc1OC)CN(S(=O)(=O)c1ccc([N+](=O)[O-])cc1)CC2`, for which the outcome with MDA-MB-231 [1] and with A549 [2] was inactive.
As for `Nc1cccc2c1CN(S(=O)(=O)c1ccc([N+](=O)[O-])cc1)CC2`, the result in the assay on MDA-MB-231 [1] and in the assay with A549 [2] was inactive.
Take `CC(=O)CCN1CCc2ccccc2C1`: the EC50 with MDA-MB-231 [3] worked out at 8 µM.
Consider `COc1cc(CN2CCc3ccccc3C2)cc(OC)c1OC`, for which the EC50 in the assay on A549 [4] amounted to 48.2 µM; with MDA-MB-231 [3] it was 19.8 µM. The outcome in the assay on MDA-MB-231 [5] was Active.
For `Nc1cccc2c1CN(Cc1ccc(C(F)(F)F)cc1)CC2`, the EC50 came to 34.7 µM in the assay on A549 [4] and 52.1 µM in the assay with MDA-MB-231 [3].
Consider `COc1cc(CN2CCc3cccc(N)c3C2)cc(OC)c1OC`, for which the EC50 turned out to be 72.4 µM in the assay on A549 [4] and 57.4 µM with MDA-MB-231 [3]. In the assay with MDA-MB-231 [5], the outcome was Active.
Turning to `COc1cc(CN2CCc3c(O)cccc3C2)cc(OC)c1OC`, the outcome (in the assay on MDA-MB-231 [6]; in the assay on MDA-MB-231 [9]; in the assay with MDA-MB-231 [10]; in [12]) was Active. Also, the values for the Activity in the assay with MDA-MB-231 [7] and in the assay with MDA-MB-231 [8] were 21% and “Dose-Dependent Effect”, respectively. For the same molecule, the EC50 in the assay on MDA-MB-231 [3] came out at 0.59 µM. The “fold change (FC)” value in the assay with MDA-MB-231 [11] was 4.
Take `Brc1ccc(CN2CCc3ccccc3C2)cc1`: the EC50 with A549 [4] stood at 37.9 µM; with MDA-MB-231 [3], 77.1 µM.
For the molecule `Cc1ccc(S(=O)(=O)N2CCc3ccccc3C2)cc1`, the result in the assay on MDA-MB-231 [1] and in the assay with A549 [2] was inactive.
With `Cc1ccc(S(=O)(=O)N2CCc3cccc(N)c3C2)cc1`, the result in the assay with MDA-MB-231 [1] and in the assay with A549 [2] was inactive.
Regarding `COc1cc2c(cc1OC)CN(Cc1cc(OC)c(OC)c(OC)c1)CC2`, the EC50 came to 77.7 µM in the assay with A549 [4] and 70.3 µM in the assay on MDA-MB-231 [3]. Also, the outcome in the assay with MDA-MB-231 [5] was Active.
As for `Nc1cccc2c1CCN(S(=O)(=O)c1ccc([N+](=O)[O-])cc1)C2`, the outcome in the assay on MDA-MB-231 [1] and with A549 [2] was inactive.
As for `Cc1ccc(S(=O)(=O)N2CCc3c(N)cccc3C2)cc1`, the outcome in the assay on MDA-MB-231 [1] and with A549 [2] was inactive.
In the case of `FC(F)(F)c1ccc(CN2CCc3ccccc3C2)cc1`, the concentration for a half-maximal effect (EC50) with A549 [4] was found to be 34.7 µM; in the assay on MDA-MB-231 [3], 52.1 µM.
For `COc1cc(CN2CCc3c(N)cccc3C2)cc(OC)c1OC`, the Activity in the assay on MDA-MB-231 [7] was found to be 13%. Also, the EC50 with A549 [4] stood at 3.48 µM; in the assay with MDA-MB-231 [3], 2.31 µM. Further, the outcome (in [12]; in the assay with MDA-MB-231 [5]) was Active.
For the molecule `FC(F)(F)c1ccc(CNc2cccc3c2CN(Cc2ccc(C(F)(F)F)cc2)CC3)cc1`, the EC50 in the assay on A549 [4] was 37 µM; in the assay on MDA-MB-231 [3], 31.5 µM.
As for `Nc1cccc2c1CCN(Cc1ccc(C(F)(F)F)cc1)C2`, the results for the EC50 in the assay with A549 [4] and in the assay with MDA-MB-231 [3] were 34.7 µM and 52.1 µM, respectively.
In the case of `COc1cc2c(cc1OC)CN(S(=O)(=O)c1ccc(C)cc1)CC2`, the result in the assay with MDA-MB-231 [1] and with A549 [2] was inactive.
Consider `Nc1cccc2c1CN(Cc1ccc(Br)cc1)CC2`, for which the concentration for a half-maximal effect (EC50) was determined as 37.9 µM with A549 [4] and 77.1 µM in the assay with MDA-MB-231 [3].
`O=[N+]([O-])c1ccc(S(=O)(=O)N2CCc3ccccc3C2)cc1`: in the assay on A549 [2], the result was inactive. In the assay on MDA-MB-231 [3], the EC50 was 61.8 µM.
For the molecule `COc1cc2c(cc1OC)CN(Cc1ccc(C(F)(F)F)cc1)CC2`, the EC50 was 34.7 µM in the assay with A549 [4] and 52.1 µM with MDA-MB-231 [3].
For `Nc1cccc2c1CCN(Cc1ccc(Br)cc1)C2`, in that order: 37.9 µM and 77.1 µM.
Take `COc1cc(CN2CCc3c(Br)cccc3C2)cc(OC)c1OC`: the Activity in the assay with MDA-MB-231 [7] is 24%. In addition, in the assay on MDA-MB-231 [3], the EC50 turned out to be 1.77 µM. In addition, the “fold change (FC)” value in the assay with MDA-MB-231 [11] is 1.3. Further, the outcome in assay [12] was Active.
Consider `COc1cc2c(cc1OC)CN(Cc1ccc(Br)cc1)CC2`, for which the EC50 was determined as 37.9 µM in the assay with A549 [4] and 77.1 µM with MDA-MB-231 [3].
